# Data published in patent publication US8367873B2, “Phenyl-substituted bicyclooctane-1,3-dione derivatives” (Bayer Cropscience AG, priority 2008, dated 2013).
# How the values were obtained:
# Format in all cases: in vivo
# [1] = tested on: monocotylidonous and dicotylidonous weed and crop plants; test: Herbicidal post-emergence action (other test plants); conditions: post-emergence method; for herbicidal effect against AVEFA (Avena fatua): 80 g/ha
# Description: (§1) Seeds of monocotylidonous and dicotylidonous weed and crop plants are placed in sandy loam in wood fibre pots, covered with soil and cultivated in a greenhouse under good growth conditions. Two to three weeks after sowing, the test plants are treated at the one-leaf stage. The test compounds, formulated as wettable powders (WP), are then with a water application rate of 600 l/ha (converted), with 0.2% of wetting agent added, sprayed onto the green parts of the plants in different amounts. After the test plants have been kept in the greenhouse under optimum growth conditions for about three weeks, the effect of the preparations is assessed visually in comparison to untreated controls (herbicidal effect in percent: 100% effect=the plants have died, 0% effect=like control plants).
# Echinocloa crus-galli [2] = test: Herbicidal pre-emergence action; conditions: pre-emergence method, 80 g/ha, greenhouse, visual assessment vs untreated controls
# Text: (§2) Seeds of monocotylidonous and dicotylidonous weed and crop plants are placed in sandy loam in wood fibre pots and covered with soil. The test compounds, formulated in the form of wettable powders (WP), are then, as an aqueous suspension with a water application rate of 600 l/ha (converted), with 0.2% of wetting agent added, applied to the surface of the covering soil in different amounts.
# (§3) After the treatment, the pots are placed in a greenhouse and kept under good growth conditions for the test plants. The visual assessment of the emergence damage on the test plants is carried out after a trial period of three weeks by comparison with the untreated controls (herbicidal effect in percent: 100% effect=the plants have died, 0% effect=like control plants).
# Setaria viridis [3] = test: Herbicidal pre-emergence action; conditions: pre-emergence method, 80 g/ha, greenhouse, visual assessment vs untreated controls
# Text: as §2, §3
# Alopecurus myosuroides [4] = test: Herbicidal pre-emergence action; conditions: pre-emergence method, 80 g/ha, greenhouse, visual assessment vs untreated controls
# Text: as §2, §3
# Lolium multiflorum [5] = test: Herbicidal pre-emergence action; conditions: pre-emergence method, 80 g/ha, greenhouse, visual assessment vs untreated controls
# Text: as §2, §3
# Echinocloa crus-galli [6] = test: Herbicidal post-emergence action; conditions: post-emergence method; for herbicidal effect against ECHCG (Echinochloa crus-galli): 80 g/ha
# Description: as §1
# Setaria viridis [7] = test: Herbicidal post-emergence action; conditions: post-emergence method; for herbicidal effect against SETVI (Setaria viridis): 80 g/ha
# Description: as §1
# Alopecurus myosuroides [8] = test: Herbicidal post-emergence action; conditions: post-emergence method; for herbicidal effect against ALOMY (Alopecurus myosuroides): 80 g/ha
# Description: as §1
# Lolium multiflorum [9] = test: Herbicidal post-emergence action; conditions: post-emergence method; for herbicidal effect against LOLMU (Lolium multiflorum): 80 g/ha
# Description: as §1
Structure (SMILES),herbicidal effect against AVEFA (Avena fatua) [1] [%],herbicidal effect ECHCG (Echinocloa crus-galli [2]) [%],herbicidal effect SETVI (Setaria viridis [3]) [%],herbicidal effect ALOMY (Alopecurus myosuroides [4]) [%],herbicidal effect LOLMU (Lolium multiflorum [5]) [%],herbicidal effect against ECHCG (Echinochloa crus-galli) (Echinocloa crus-galli [6]) [%],herbicidal effect against SETVI (Setaria viridis) (Setaria viridis [7]) [%],herbicidal effect against ALOMY (Alopecurus myosuroides) (Alopecurus myosuroides [8]) [%],herbicidal effect against LOLMU (Lolium multiflorum) (Lolium multiflorum [9]) [%],"pest or weed control at 80 g/ha ([1]; 504 h, Avena fatua, read-out: herbicidal effect against AVEFA (Avena fatua)) [%]","pest or weed control at 80 g/ha (Echinocloa crus-galli [6]; Echinochloa crus-galli, 504 h, read-out: herbicidal effect against ECHCG (Echinochloa crus-galli)) [%]","pest or weed control at 80 g/ha (Setaria viridis [7]; Setaria viridis, 504 h, read-out: herbicidal effect against SETVI (Setaria viridis)) [%]","pest or weed control at 80 g/ha (Alopecurus myosuroides [8]; Alopecurus myosuroides, 504 h, read-out: herbicidal effect against ALOMY (Alopecurus myosuroides)) [%]","pest or weed control at 80 g/ha (Lolium multiflorum [9]; Lolium multiflorum, 504 h, read-out: herbicidal effect against LOLMU (Lolium multiflorum)) [%]"
CCc1cc(C)cc(CC)c1C1=C(OC(=O)OC)C2CC3(CC2C1=O)OC(C)CC(C)O3 (mixture of isomers) [I-c-24],80,70,70,90,100,100,100,100,100,–,–,–,–,–
COc1cc(C)cc(C)c1C1=C(OC(=O)C(C)C)C2CC3(CC2C1=O)OCC=CCO3 (centres unmarked) [I-b-63],100,100,70,70,100,100,100,100,100,–,–,–,–,–
CCc1cc(C)cc(CC)c1C1=C(O)[C@H]2CC(=NOC(C)C)C[C@H]2C1=O (relative stereo) [I-a-29],60,70,20,90,80,100,80,100,100,–,–,–,–,–
CCc1cc(C)cc(CC)c1C1=C(OC(=O)C(C)(C)C)C2CC3(CC2C1=O)OCCS3 (mixture of isomers) [I-b-19],30,100,90,100,100,100,80,20,40,–,–,–,–,–
Cc1cc(C)c(C2=C(OC(=O)CC(C)C)C3CC(=O)CC3C2=O)c(C)c1 (centres unmarked) [I-b-56],0,–,–,–,–,100,100,20,0,–,–,–,–,–
CCC(C)(C)C(=O)OC1=C(c2c(C)cc(C)cc2C)C(=O)C2CC(=O)CC12 (centres unmarked) [I-b-55],0,–,–,–,–,90,90,0,0,–,–,–,–,–
COC(=O)OC1=C(c2c(C)cc(C)cc2C)C(=O)C2CC3(CC12)OCCCCO3 (racemic) [I-c-49],80,–,–,–,–,90,80,100,100,–,–,–,–,–
CCc1cc(C)cc(CC)c1C1=C(O)[C@H]2CC3(C[C@H]2C1=O)SCCS3 (relative stereo) [I-a-16],30,–,–,–,–,90,80,30,80,–,–,–,–,–
COCC(=O)OC1=C(c2c(C)cc(C)cc2C)C(=O)C2CC3(COC(C)(C)O3)CC12 (mixture of isomers) [I-b-47],80,–,–,–,–,100,0,90,90,–,–,–,–,–
C=C1CC2C(=O)C(c3c(C)cc(C)cc3C)=C([O-])C2C1.[Na+] (centres unmarked) [I-f-23],0,–,–,–,–,90,80,0,60,–,–,–,–,–
COc1cc(C)cc(C)c1C1=C(O)C2CC3(CC2C1=O)OCCCO3 (centres unmarked) [I-a-47],80,–,–,–,–,100,100,20,100,–,–,–,–,–
Cc1cc(C)c(C2=C([O-])C3CC4(CC3C2=O)OC(C)CC(C)O4)c(C)c1.[Na+] (centres unmarked) [I-f-3],0,–,–,–,–,90,80,90,90,–,–,–,–,–
CCOC(=O)OC1=C(c2c(C)cc(C)cc2C)C(=O)C2CC(=O)CC12 (racemic) [I-c-58],0,–,–,–,–,100,100,0,0,–,–,–,–,–
COc1cc(C)cc(C)c1C1=C(O)C2CC(=O)CC2C1=O (centres unmarked) [I-a-46],0,–,–,–,–,100,40,0,0,–,–,–,–,–
"CCc1cc(C)cc(CC)c1C1=C(O)[C@H]2CC(=O)C[C@H]2C1=O (stereo in doubt) [I-a-4, 2-(2,6-diethyl-4-methylphenyl)-3-hydroxy-3a,4,6,6a-tetrahydropentalene-1,5-dione]",–,–,–,–,–,–,–,–,–,30,100,100,60,20
CCC(=O)OC1=C(c2c(C)cc(C)cc2C)C(=O)C2CC3(COC(C)(C)O3)CC12 (mixture of isomers) [I-b-50],0,–,–,–,–,90,80,100,100,–,–,–,–,–
CCc1cc(C)cc(C)c1C1=C(O)C2CC3(CC2C1=O)OCC=CCO3 (centres unmarked) [I-a-60],90,–,–,–,–,100,100,100,100,–,–,–,–,–
COC(=O)OC1=C(c2c(C)cc(C)cc2C)C(=O)C2CC(=O)CC12 (racemic) [I-c-57],0,–,–,–,–,100,90,90,0,–,–,–,–,–
CCOC(=O)OC1=C(c2c(C)cc(C)cc2C)C(=O)C2CC3(CC12)OCCCO3 (racemic) [I-c-47],90,–,–,–,–,100,60,100,100,–,–,–,–,–
CCc1cc(C)cc(CC)c1C1=C(OC(=O)OC)C2CC(=O)CC2C1=O (centres unmarked) [I-c-42],0,–,–,–,–,100,100,0,0,–,–,–,–,–
Cc1cc(C)c(C2=C(O)[C@H]3CC4(C[C@H]3C2=O)OCCCO4)c(C)c1 (relative stereo) [I-a-37],90,–,–,–,–,100,60,60,100,–,–,–,–,–
COCC(=O)OC1=C(c2c(C)cc(C)cc2C)C(=O)C2CC(=O)CC12 (centres unmarked) [I-b-53],0,–,–,–,–,100,90,20,0,–,–,–,–,–
CCC(=O)OC1=C(c2c(C)cc(C)cc2C)C(=O)C2CC(=O)CC12 (centres unmarked) [I-b-57],0,–,–,–,–,100,100,0,0,–,–,–,–,–
